Laboratory results from US20190365760A1, “A THERAPEUTIC OR PROPHYLACTIC AGENT FOR ISCHEMIC DISEASE, GLAUCOMA, OPTIC NERVE DISEASE, RETINAL DEGENERATIVE DISEASE, ANGIOGENIC RETINAL DISEASE, CANCER, NEURODEGENERATIVE OR AUTOIMMUNE DISEASE, AND A HYPOXIA INDUCING FACTOR INHIBITOR” (KEIO UNIVERSITY, priority 2016, published 2019).

Assays:
[1] = system: HIF; assay: HIF reporter assay (HIF-activity-dependent Firefly-Luciferase) in NIH3T3 cells with CoCl2; type: cell-based, mouse; conditions: for cytotoxicity (endogenous control CMV-Renilla-Luciferase activity): CoCl2; for HIF activity (HIF inhibitory activity): CoCl2 200 μM, luminescence 24 hours after CoCl2
Experimental: (§1) The HIF-activity-dependent Firefly-Luciferase and endogenous control CMV-Renilla-Luciferase were both transgenic into mouse fibroblast cell line (NIH3T3) and mouse retinal […] cell line (661 W) using lentiviruses to generate stable expression lines. HIF can be stabilized by adding cobalt chloride (CoCl2), a PHD inhibitor, to the cells, and luciferin can be added to obtain a luminescent signal correlating with HIF activity. Samples of various natural products were added to the cells to confirm the HIF inhibitory effect of the candidate on cobalt chloride-induced HIF activity.
(§2) Specifically, 1×10^4 of NIH3T3 cells and 0.8×10^4 of 661 W cells were seeded on a 96-well plate with the above cell lines. After cells were engrafted to the bottom of the plate, HIF-activity was induced by adding CoCl2 at 200 μM. The luminescence strength was measured 24 hours after the CoCl2 was added using a Dual-Glo Luciferase assay system manufactured by Promega Corporation. The candidates were added at the same time as the of the CoCl2.

[2] = system: HIF; assay: HIF reporter assay (HIF-activity-dependent Firefly-Luciferase) in 661W cells with CoCl2; type: cell-based, mouse; conditions: for cytotoxicity (endogenous control CMV-Renilla-Luciferase activity): CoCl2; for HIF activity (HIF inhibitory activity): CoCl2 200 μM, luminescence 24 hours after CoCl2
Experimental: as §1, §2

[3] = system: Mouse Retinal Ischemia-Reperfusion Model; assay: Mouse retinal ischemia-reperfusion model, optical coherence tomography (OCT); type: in vivo, C57BL6J mice; conditions: 0.2 mg/kg intraperitoneally, radius 250 μm from optic nerve head
Experimental: (§3) First, 0.2 mg/kg of halofuginone solution dissolved in PBS was administered intraperitoneally once daily to C57BL6J mice 8 weeks old (male; manufactured by Crea Japan) for 7 consecutive days (Halofuginone group; n=4). The control group received the same dose of PBS intraperitoneally for the same period (n=4).
(§4) Retinal ischemia reperfusion treatment was then performed as follows.
(§5) Nine-week-old mice were administered intraperitoneal anesthetics (three mixtures: medetomidine 0.75 mg/kg, midazolam 4 mg/kg, and butorphanol 5 mg/kg; hereinafter referred to as “MMB”). At the same time as anesthesia, Midrin P ophthalmic solution (Santen Pharmaceutical Co., Ltd.) was used to dilate both eyes.
(§6) The physiological saline infusion bags were fixed at a height of 1.5 m from the laboratory table, inserted into the anterior chamber of the right eye of the mice with 35 G needles perfused with physiological saline, and perfusion was started. Intraocular pressure was measured every 5 minutes (Tonolab hand-held tonometer; manufactured by icare Corporation) to confirm that intraocular pressure was maintained at 85-99 mm Hg. […]
The entire thickness of the retina was evaluated using OCTs in order to measure the total thickness of the retina in the In vivo.
Mice were fixed under MMB anesthesia and the total retinal thickness centered on the optic papilla was measured. […]

[4] = system: mouse ganglion cell disorder model; conditions: vitreous administration of N-methyl-D-aspartic acid; previously reported by the inventors; cited from earlier work
[5] = system: Mouse Retinal Ischemia-Reperfusion Model; assay: Mouse retinal ischemia-reperfusion model, visual evoked potential (VEP); type: in vivo, C57BL6J mice; conditions: 0.2 mg/kg intraperitoneally, 1 Hz flashing light 3 cds/m^2
Experimental: as §3, §4, §5, §6
The VEPs of the same individuals were then measured continuously. […]
Differences (P1-N1) from each first negative crest to the next positive crest were measured as amplitudes, and latencies were also measured, and the mean of two times was evaluated as the value of one individual.

[6] = system: bnip3 gene; assay: Real-time PCR gene expression in 661W cells with CoCl2; type: cell-based, mouse; conditions: CoCl2 200 μM, four hours after adding halofuginone
Experimental: (§7) In the system of 661W cells to which the CoCl2 was added, the expression levels of the respective genes were measured in order to examine the inhibitory effects of halofuginone on the hif gene induced by the CoCl2 and the bnip3 gene, glut1 gene, pdk1 gene, and vegf gene which are the downstream genes. The expression level was measured by Real-time PCR. Specifically, 3×10^4 of 661 W cells were seeded on a 24-well plate, and CoCl2 was added at a density of 200 μM after cell immobilization. Halofuginone was added at the concentrations shown in FIG. 14 simultaneously with CoCl2. Four hours after adding halofuginone, RNAs were extracted, cDNA was synthesized, and then Real-time PCR was performed to determine the expression levels of the respective genes.

[7] = system: glut1 gene; assay: as above; type: cell-based, mouse; conditions: CoCl2 200 μM, four hours after adding halofuginone
Experimental: as §7

[8] = system: pdk1 gene; assay: as above; type: cell-based, mouse; conditions: CoCl2 200 μM, four hours after adding halofuginone
Experimental: as §7

[9] = system: HIF; assay: HIF reporter assay in ARPE19 cells with CoCl2; type: cell-based
Experimental: as §1, §2
Halofuginone, a halogenated derivative of ferbrifudine in Hydrangea macrophylla, was used as a sample to measure HIF activity on 661W cells, 3T3 cells, or ARPE19 cells in the assays described above. […] In FIGS. 11 to 13, “CoCl2+HF” indicates a system in which CoCl2 are added to the cells. […]

[10] = system: Mouse Retinal Photoinjury Model; assay: Mouse retinal photoinjury model, electroretinography; type: in vivo, BALB/c mice; conditions: 0.4 mg/kg intraperitoneally once daily for 5 days, white LED 3000 lux 1 hour, compared with PBS group
Experimental: First, 0.4 mg/kg of halofuginone solution dissolved in PBS was administered intraperitoneally once daily to BALB/c mice 8 weeks old for 5 consecutive days (halofuginone group; n=4). The control group received the same amount of PBS (phosphate buffered saline) intraperitoneally (n=4) for the same period of time. Dark adaptation was performed on day 4 of the above period and then on day 5 a white LED of 3000 lux was irradiated for 1 hour. Dark adaptation was performed on day 6 after the light irradiation, and electroretinography was performed on day 7.

## COc1cccc2c1C(=O)c1c(O)c3c(c(O)c1C2=O)C[C@@](O)(C(=O)CO)C[C@@H]3O[C@H]1C[C@H](N)[C@H](O)[C@H](C)O1 [doxorubicin]
[1]
  cytotoxicity (endogenous control CMV-Renilla-Luciferase activity): without cytotoxicity
  HIF activity (HIF inhibitory activity): significantly decreased
[2]
  cytotoxicity (endogenous control CMV-Renilla-Luciferase activity): without cytotoxicity
  HIF activity (HIF inhibitory activity): significantly decreased

## O=C(C[C@@H]1NCCC[C@H]1O)Cn1cnc2cc(Br)c(Cl)cc2c1=O [halofuginone]
[1]
  HIF activity (HIF inhibitory activity): significant level-dependent HIF inhibitory activity
[3]
  total thickness of the retina by OCT: 251.9±7.2 μm
[4]
  neuroprotective effect: neuroprotective effect
[5]
  VEP amplitude (P1-N1): 92±10.9 μV
[6]
  expression level of the bnip3 gene: decreased
[7]
  expression level of the glut1 gene: decreased
[8]
  expression level of the pdk1 gene: decreased
[9]
  HIF activity (HIF inhibitory activity): significant level-dependent HIF inhibitory activity
[10]
  electroretinography amplitude (dark-adapted and light-adapted): decrease in amplitude was suppressed
[2]
  HIF activity (HIF inhibitory activity): significant level-dependent HIF inhibitory activity

## CC[C@@]1(O)C(=O)OCc2c1cc1n(c2=O)Cc2cc3c(CN(C)C)c(O)ccc3nc2-1 [topotecan]
[1]
  cytotoxicity (endogenous control CMV-Renilla-Luciferase activity): without cytotoxicity
[2]
  cytotoxicity (endogenous control CMV-Renilla-Luciferase activity): without cytotoxicity
